Reference: patent publication US11219623B2, “Inflammasome inhibition for the treatment of Parkinson's disease, Alzheimer's disease and multiple sclerosis” (University of Kentucky Research Foundation, priority 2015, dated 2022)
In brackets after ≈: the same amount, converted by molar mass. Entries after “also recorded” stand apart in the source; their conditions may differ.

Legend:
[1] = tested on: human LINE-1 retrotransposon; assay: EGFP cell culture L1 retrotransposition assay in HeLa cells; format: cell-based; details: 7 days after transfection, flow cytometry
Description: These findings pave way for the rational re-design and improvement of nucleoside analogs as novel therapeutics. The enhanced green fluorescent protein (EGFP) cell culture L1 retrotransposition assay was performed in HeLa cells. […] Transfected cells were selected in puromycin. 7 days after transfection, cells that underwent retrotransposition (EGFP-positive) were assayed by flow cytometry. Cells were gated based on background fluorescence of plasmid JM111, which has two point mutations in L1-ORF1 that abolish retrotransposition. Data are normalized with RPS set to 1.

[2] = tested on: Caspase-1; assay: iGLuc luminescence assay of ATP-induced Caspase-1 activation in J774 iGLuc cells; format: cell-based, mouse; details: for Caspase-1 cleavage (luminescence): ATP 5 mM, drug 1 nM-100 μM, N=3; for reduction of inflammasome activation: ATP (5 mM), mouse J774 iGLuc cells, FIGS. 70-73
Description: Caspase-1 is the enzyme at the core of the inflammasome complex and is an important danger response signal and mediator of RPE cell death in AMD. […] Importantly, there was some difference between individual compounds in terms of the dose response curve, emphasizing the need to test each compound (with unique R group(s)) individually.
To obtain the data set forth in FIGS. 64-73, an iGLuc assay was conducted (modified from Bartok et al. iGLuc: a luciferase-based inflammasome and protease activity reporter. Nature Methods 2013; 10(2):147-54). Briefly, 100,000 iGLuc cells per well were plated in a 96 well plate overnight. The next morning, media is aspirated from the plate and replaced with 75 μL of serum free DMEM with drugs (NRTIs or modified NRTIs) for 30 min. After 30 minutes of drug exposure, 20 mM ATP (25 μL) is added for a final concentration of 5 mM. 50 μL of media from each well is collected and 50 μL of coelenterazine 4.4 μM is added to each sample, and luminescence is read immediately.

[3] = tested on: wild-type mice; assay: Laser-induced choroidal neovascularization (CNV; wet AMD) in wild-type mice; details: intravitreous 0.14 nmol; day 7; N=16
[4] = Solubility in water; format: physicochemical; details: aqueous buffer; Water pH 7.2 at 37° C.
[5] = LogP, partition coefficient in 1-octanol; format: physicochemical; details: 1-octanol partition
[6] = tested on: wild-type mice; assay: pAlu-induced RPE degeneration, mouse model of dry AMD; format: in vivo; details: intraperitoneal 25 mg/kg twice daily
Description: Mouse studies were conducted to study treatment with NRTIs or derivatives.

[7] = tested on: Caspase-1; assay: Alu RNA-induced Caspase-1 activation, western blot, primary human RPE cells; format: cell-based
Excerpt: The bottom row in FIG. 5 is a vinculin loading control.

[8] = tested on: mtDNA; assay: Relative quantity of mtDNA, quantitative PCR, primary human RPE cells; details: 50 μM; four days; relative to DMSO
[9] = tested on: GFP-expressing lentivirus; assay: GFP-expressing lentivirus transduction/replication assay in HeLa cells; format: cell-based; details: 10 μM; 72 hours; MOI 20
Description: All drugs were added at a concentration of 10 μM. Cells were imaged for GFP expression 72 hours after addition of lentivirus. GFP-positive cells per field of view were recorded. n=4-11, error bars S.E.M. Reverse transcription of lentivirus is essential for GFP expression; modified NRTIs should not block reverse transcriptase, whereas NRTIs are known to block reverse transcriptase.
The present disclosure further provides the results of additional experiments in FIG. 21-FIG. 23.

[10] = tested on: Caspase-1; assay: Iron (III) ammonium citrate-induced Caspase-1 activation, western blot, primary human RPE cells; format: cell-based; details: Fe(III) ammonium citrate (100 μM)
Excerpt: Caspase-1 activation (p20 subunit) in primary human retinal pigment epithelium (RPE) cells in the presence of iron (III) ammonium citrate was studied.
Caspase-1 activation (p10 subunit) in primary human RPE cells in the presence of iron (III) ammonium citrate was studied.
Alu RNA is a toxic endogenous retroelement that accumulates in and causes death of the RPE in patients with dry AMD. […] FAC activates Caspase-1 via an Alu RNA intermediate, and induces NLRP3-dependent RPE degeneration (Gelfand et al. Cell Reports 2015). Fe(III) ammonium citrate (100 μM)-induced Caspase-1 activation in primary human RPE cells, monitored by western blotting, is reduced by TM-3TC (25 μM), d4T-ene (25 μM), 2Me-d4T (25 μM), Me-AZT (25-100 μM), and 2Me-AZT (25 μM). N=3-4.

[11] = target: T1, human P2X7 receptor (Homo sapiens, UniProt Q99572); details: 64 μM drug; bzATP 100 μM; n=12
T1 sequence (Q99572 1-595): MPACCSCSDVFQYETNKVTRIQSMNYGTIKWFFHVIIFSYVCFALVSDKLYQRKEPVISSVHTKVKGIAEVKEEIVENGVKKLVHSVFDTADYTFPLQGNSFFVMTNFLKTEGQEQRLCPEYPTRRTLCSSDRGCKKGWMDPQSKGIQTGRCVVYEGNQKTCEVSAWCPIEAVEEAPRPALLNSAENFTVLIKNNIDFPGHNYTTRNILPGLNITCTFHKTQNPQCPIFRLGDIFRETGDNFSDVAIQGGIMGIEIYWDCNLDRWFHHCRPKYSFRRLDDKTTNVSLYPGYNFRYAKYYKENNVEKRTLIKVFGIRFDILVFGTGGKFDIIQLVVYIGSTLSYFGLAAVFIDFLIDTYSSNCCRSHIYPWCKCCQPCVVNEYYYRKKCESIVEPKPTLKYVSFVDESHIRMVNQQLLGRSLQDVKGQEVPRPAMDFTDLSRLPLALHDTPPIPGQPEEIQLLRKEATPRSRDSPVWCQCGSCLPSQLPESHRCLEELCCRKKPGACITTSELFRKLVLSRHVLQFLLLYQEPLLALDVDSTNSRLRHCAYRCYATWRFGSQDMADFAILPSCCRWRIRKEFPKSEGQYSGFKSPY

[12] = tested on: wild-type mice; assay: Alu RNA-induced RPE degeneration, mouse model of dry AMD; details: intraperitoneal 25 mg/kg, twice daily for 6 days
[13] = tested on: Caspase-1; assay: LPS/ATP-induced Caspase-1 activation, mouse bone marrow-derived macrophages, western blot; details: 100 uM; cell culture supernatants
[14] = tested on: IL-18; assay: LPS/ATP-induced IL-18 maturation, mouse bone marrow-derived macrophages; format: cell-based; details: 100 uM; cell culture supernatants
[15] = tested on: IL-1 beta; assay: MSU-induced IL-1 beta secretion from PMA-differentiated THP-1 monocytes, ELISA; format: cell-based, human; details: 25-1000 uM
Excerpt: Human THP-1 monocytes were differentiated into macrophages with PMA.
To illustrate this, human THP-1 monocytes were differentiated into macrophages with PMA. Treatment with MSU increased IL-1 beta secretion compared to non-treated cells. […]

SMILES	L1 retrotransposition (EGFP-positive cells) [1]	Caspase-1 cleavage (luminescence) [2]	solubility [4] [µg/mL]	logP [5]	pAlu-induced RPE degeneration [6]	further results
CCOC[C@H]1O[C@@H](n2ccc(N(CC)CC)nc2=O)CS1 (stereo in doubt) [Kamuvudine 3Et-3TC, 4-(diethylamino)-1-[2-(ethoxymethyl)-1,3-oxathiolan-5-yl]-1,2-dihydropyrimidin-2-one]	some residual interference with natural L1 activity	reduces Caspase-1 cleavage in a dose-dependent fashion	1600 (≈ 5.1 mM)	1.16	protects against RPE degeneration	choroidal neovascularization (CNV) volume [3]: reduced choroidal neovascularization (CNV) volume
CCOC[C@H]1O[C@@H](n2cc(C)c(=O)n(CC)c2=O)C[C@@H]1N=[N+]=[N-] [Kamuvudine 2Et-AZT, 1-[(2R,4S,5 S)-4-azido-5-(ethoxymethyl)oxolan-2-yl]-3-ethyl-5-methyl-1,2,3,4-tetrahydropyrimidine-2,4-dione]	no effect on L1 activity	reduces Caspase-1 cleavage in a dose-dependent fashion	10 (≈ 0.0309 mM)	1.17	protects against RPE degeneration	choroidal neovascularization (CNV) volume [3]: reduced choroidal neovascularization (CNV) volume
CCOC[C@@H]1C=C[C@H](n2cc(C)c(=O)n(CC)c2=O)O1 [Kamuvudine 2Et-d4T, 1-[(2R,5 S)-5-(ethoxymethyl)-2,5-dihydrofuran-2-yl]-3-ethyl-5-methyl-1,2,3,4-tetrahydropyrimidine-2,4-dione]	no effect on L1 activity	reduces Caspase-1 cleavage in a dose-dependent fashion	90 (≈ 0.321 mM)	1.35	protects against RPE degeneration	reduction of inflammasome activation [2]: about 45%; Alu RNA induced Caspase-1 activation ([7]; 25 μM, N=3-4): reduced
COC[C@H]1O[C@@H](n2cc(C)c(=O)n(C)c2=O)C[C@@H]1N=[N+]=[N-] [Kamuvudine 2Me-AZT, 1-[(2R,4S,5S)-4-azido-5-(methoxymethyl)oxolan-2-yl]-3,5-dimethyl-1,2,3,4-tetrahydropyrimidine-2,4-dione]	no effect on L1 activity	reduces Caspase-1 cleavage in a dose-dependent fashion	940 (≈ 3.18 mM)	0.45	restored to healthy RPE morphology/intercellular junctions	relative quantity of mtDNA (mtDNA depletion) [8]: do not exhibit mtDNA depletion; lentivirus replication (GFP-positive cells per field) [9]: do not block lentivirus replication; Alu RNA induced Caspase-1 activation ([7]; 25 μM, N=3-4): reduced; iron-induced Caspase-1 activation ([10]; 25 μM): reduced
Clc1cccc(-c2nnnn2Cc2cccnc2)c1Cl [Kamuvudine A438079]						P2X7-mediated YO-PRO-1 dye uptake induced by bzATP [11]: inhibited
COCC1O[C@@H](n2cc(C)c(=O)[nH]c2=O)CC1N=[N+]=N (stereo partly drawn) [Me-AZT, 1-[(5R)-2-(methoxymethyl)-5-(5-methyl-2,4-dioxo-1,2,3,4-tetrahydropyrimidin-1-yl)oxolan-3-yl]triaza-1,2-dien-2-ium]	no effect on L1 activity				restored to healthy RPE morphology/intercellular junctions	relative quantity of mtDNA (mtDNA depletion) [8]: do not exhibit mtDNA depletion; lentivirus replication (GFP-positive cells per field) [9]: do not block lentivirus replication; iron-induced Caspase-1 activation ([10]; 25-100 μM): reduced
CCn1c(=O)c(C)cn([C@H]2C=C[C@@H](COC)O2)c1=O [O-Me N-Et d4T, 3-ethyl-1-[(2R,5S)-5-(methoxymethyl)-2,5-dihydrofuran-2-yl]-5-methyl-1,2,3,4-tetrahydropyrimidine-2,4-dione]		reduces Caspase-1 cleavage in a dose-dependent fashion	1500 (≈ 5.63 mM)	0.99		Alu RNA-induced RPE degeneration [12]: protects against Alu RNA-induced RPE degeneration; reduction of inflammasome activation [2]: about 55%; choroidal neovascularization (CNV) volume [3]: reduced choroidal neovascularization (CNV) volume; Alu RNA induced Caspase-1 activation ([7]; 25 μM, N=3-4): reduced
Clc1ccc(C(c2ccc(Cl)cc2)n2cc[n+](CC(OCc3ccc(Cl)cc3Cl)c3ccc(Cl)cc3Cl)c2)cc1 (centres unmarked) [calmidazolium, reference compound]						Alu RNA-induced Caspase-1 activation/cleavage ([7]; concentration not given): not inhibited
Nc1ncnc2c1ncn2[C@@H]1O[C@H](CO)C[C@H]1O [cordycepin]						Caspase-1 activation (active p20 band) induced by LPS/ATP [13]: inhibit Caspase-1 activation; IL-18 maturation induced by LPS/ATP [14]: inhibit; IL-1beta secretion induced by MSU [15]: did not significantly affect IL-1beta secretion; Alu RNA-induced Caspase-1 maturation ([7]; 50-100 uM, 24 hours after Alu administration): blocked
C=C1C=C[C@H](n2cc(C)c(=O)[nH]c2=O)O1 [d4T-ene]						Alu RNA induced Caspase-1 activation ([7]; 25-100 μM (25 and 100 μM)): blocked Alu-induced Caspase-1 activation; also recorded: reduced; iron-induced Caspase-1 activation ([10]; 25 μM): blocked iron-induced Caspase-1 activation; also recorded: reduced
Nc1ccn([C@@H]2CS[C@H](CO)O2)c(=O)n1 [reference compound]			64000 (≈ 279 mM)	-1.1		
